Test results taken from US20220281846A1, “COMPOUNDS AND COMPOSITIONS FOR THE TREATMENT OF RESPIRATORY DISEASES” (THE UNIVERSITY OF MELBOURNE, priority 2018, published 2022).
Where two headings read alike, the source gives them in different places.

Assays:
ERBB4/HER4 = molecular target: T1, ERBB4/HER4 (Homo sapiens, UniProt Q15303); test: Kinase inhibition assay (HotSpot), ERBB4/HER4; assay type: biochemical; details: 10 μM ATP, 10-dose IC50 mode; read-out: Compound IC50 (M) ERBB4/HER4
T1 construct: purchased Reaction Biology Corp
T1 sequence (Q15303 26-1308): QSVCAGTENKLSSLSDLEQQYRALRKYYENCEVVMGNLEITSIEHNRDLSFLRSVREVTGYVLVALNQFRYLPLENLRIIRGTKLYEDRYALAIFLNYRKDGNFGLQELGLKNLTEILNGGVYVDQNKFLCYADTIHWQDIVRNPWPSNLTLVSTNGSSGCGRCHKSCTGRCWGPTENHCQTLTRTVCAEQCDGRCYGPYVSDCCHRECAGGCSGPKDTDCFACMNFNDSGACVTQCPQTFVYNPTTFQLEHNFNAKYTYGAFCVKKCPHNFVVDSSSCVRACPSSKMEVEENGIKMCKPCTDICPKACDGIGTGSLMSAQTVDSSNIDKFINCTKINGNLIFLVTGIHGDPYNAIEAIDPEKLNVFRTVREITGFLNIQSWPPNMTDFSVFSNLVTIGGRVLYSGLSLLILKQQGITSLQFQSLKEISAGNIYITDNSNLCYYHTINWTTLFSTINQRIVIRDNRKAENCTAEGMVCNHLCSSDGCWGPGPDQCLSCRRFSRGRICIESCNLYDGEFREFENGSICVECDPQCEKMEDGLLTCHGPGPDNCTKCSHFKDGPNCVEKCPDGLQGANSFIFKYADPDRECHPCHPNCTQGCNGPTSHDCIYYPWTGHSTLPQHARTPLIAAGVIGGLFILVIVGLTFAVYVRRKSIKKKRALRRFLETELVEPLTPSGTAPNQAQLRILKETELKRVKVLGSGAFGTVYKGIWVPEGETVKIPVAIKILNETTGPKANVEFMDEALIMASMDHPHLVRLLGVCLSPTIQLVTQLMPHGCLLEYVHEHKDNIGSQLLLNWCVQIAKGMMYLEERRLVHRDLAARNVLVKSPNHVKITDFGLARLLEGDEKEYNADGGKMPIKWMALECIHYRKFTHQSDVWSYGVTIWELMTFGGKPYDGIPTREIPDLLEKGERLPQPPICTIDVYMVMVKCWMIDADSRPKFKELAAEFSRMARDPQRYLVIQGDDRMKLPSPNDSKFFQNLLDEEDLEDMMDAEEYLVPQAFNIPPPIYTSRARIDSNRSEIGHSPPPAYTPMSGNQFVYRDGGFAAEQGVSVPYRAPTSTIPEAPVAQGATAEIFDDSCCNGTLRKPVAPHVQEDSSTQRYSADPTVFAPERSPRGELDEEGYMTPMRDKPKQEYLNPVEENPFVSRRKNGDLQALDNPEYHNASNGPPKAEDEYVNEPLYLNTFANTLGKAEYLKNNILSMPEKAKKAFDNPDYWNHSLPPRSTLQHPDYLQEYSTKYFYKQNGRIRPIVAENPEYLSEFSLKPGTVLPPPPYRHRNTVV

[1] = test system: TGF-β-induced IL-11 in primary human parenchymal fibroblast cells (pFbs); test: Human parenchymal fibroblast cell assay, TGF-β-induced IL-11 (ELISA); assay type: cell-based; details: compounds 0.1-10 μM 30 min prior to TGF-β1, 16-24 hours, 4.00* is assigned to compounds that failed to cause 50% or more inhibition at 10 µM, read-out: pIC50 IL-11 suppression (converted)
Method: Human Parenchymal Fibroblast Cell Assay
Primary human parenchymal fibroblast cells (pFbs) were cultured from parenchyma of lung resection specimens and from non-transplanted lungs of donors without chronic respiratory disease. pFbs were passaged in Dulbecco's Modified Eagle's Media (DMEM) containing 10% (v/v) heat-inactivated fetal calf serum (FCS), 15 mM HEPES, 0.2% (v/v) sodium bicarbonate, 2 mM L-glutamine, 1% (v/v) non-essential amino acids, 1% (v/v) sodium pyruvate, 2.5 μg/mL amphotericin, 5 IU/mL penicillin and 50 μg/mL streptomycin. In some experiments the human lung fibroblast cell line, MRC5 (sourced from ATTC) was used as indicated. The MRC5 line was maintained under the same conditions as described for the pFb.
Prior to experimentation, pFb were incubated in serum-free DMEM containing 0.25% bovine serum albumin (BSA) and insulin-transferrin-selenium-containing supplement (Monomed A; CSL, Parkville, Melbourne, Australia). The cells were incubated with small molecular CK1δ inhibitors (0.1-10 μM) for 30 min prior to […] TGF-β1 (R&D Systems, Minneapolis, Minn.) and the incubation continued for 16-24 hours prior to harvest of supernatant for detection of immunoreactive IL-11. Stock solutions were made as 10 mM in 100% DMSO and diluted to the required concentration in medium containing 0.1% DMSO (final concentration).
Supernatants were collected for measurement of IL-11 (R&D DuoSet, DY218) by ELISA following the manufacturers' instructions. Generally, capture antibodies were initially diluted to the recommended concentrations using PBS buffer, and then used to coat the wells of 96-well microplates (Greiner, #655061) by adding 50 μL/well and incubated overnight at room temperature. Next day, solutions were discarded and wells were washed 3 times with wash buffer (PBS containing 0.1% (v/v) Tween-20) prior to the addition of 200 μL of blocking solution (PBS containing 1% (v/v) BSA) for 1 hour to block non-specific sites. Plates were then washed 3 times with wash buffer and 50 μL of samples or standards were then added to wells and incubated for 2 hours at room temperature. After the incubation, plates were washed 3 times with wash buffer and 50 μL of detection antibodies were added to wells and incubated for 2 hours at room temperature. Plates were then washed 3 times before adding streptavidin-conjugated horseradish peroxidase (at the recommended concentrations) for 45 min. Plates were then washed 5 times with wash buffer and 100 μL TMB substrate solution (equal parts A and B, BD Biosciences) was added to each well until sufficient signals emerged. The reactions were inactivated by adding 100 μL sulphuric acid (2M H2SO4). The absorbance was measured at 450 nm using the Multiskan Ascent® plate reader. The absorbance of the cytokine standards was fitted to a logistic equation, allowing the concentrations of cytokine in samples to be determined.
PIC50 values (the negative log of the concentration suppressing IL-11 level by 50%) for inhibition of TGF-β-induced IL-11 were interpolated from the linear regression of log concentration small molecule versus IL-11 level (Table 4 and FIG. 2).

[2] = In vitro metabolic stability, human liver microsomes; assay type: in vitro ADME
Method: Human Microsomal Stability of Compounds of the Invention
In Vitro Metabolic Stability
Incubation: The metabolic stability assay was performed by incubating each test compound in human liver microsomes at 37° C. and a protein concentration of 0.4 mg/mL. The metabolic reaction was initiated by the addition of an NADPH-regenerating system and quenched at various time points over a 60 minute incubation period by the addition of acetonitrile containing diazepam as internal standard. Control samples (containing no NADPH) were included (and quenched at 2, 30 and 60 minutes) to monitor for potential degradation in the absence of cofactor. The human liver microsomes used in this experiment were supplied by XenoTech, lot #1410230. Microsomal incubations were performed at a substrate concentration of 1 μM. Data analysis: Species scaling factors from Ring et al. (2011) JPharmSci, 100:4090-4110 were used to convert the in vitro CLint (μL/min/mg) to an in vivo CLint(mL/min/kg). Hepatic blood clearance and the corresponding hepatic extraction ratio (EH) were calculated using the well stirred model of hepatic extraction in each species, according to the “in vitro T1/2” approach described in Obach (1999) DrugMetab. Dispos. 27:1350-1359. The EH was then used to classify compounds as low(<0.3), intermediate (0.3-0.7), high (0.7-0.95) or very high (>0.95) extraction compounds. Predicted in vivo clearance values have not been corrected for microsomal or plasma protein binding. Species scaling calculations are based on two assumptions: 1) NADPH-dependent oxidative metabolism predominates over other metabolic routes (i.e. direct conjugative metabolism, reduction, hydrolysis, etc.), and; 2) rates of metabolism and enzyme activities in vitro are truly reflective of those that exist in vivo. If significant non-NADPH-mediated degradation is observed in microsome control samples, then assumption (1) is invalid and predicted clearance parameters are therefore not reported.

MINK/MINK1 = molecular target: T2, MINK/MINK1 (Homo sapiens, UniProt Q8N4C8); test: Kinase inhibition assay (HotSpot), MINK/MINK1; assay type: biochemical; details: 10 μM ATP, 10-dose IC50 mode; read-out: Compound IC50 (M) MINK/MINK1
T2 construct: purchased Reaction Biology Corp
T2 sequence (Q8N4C8 whole entry): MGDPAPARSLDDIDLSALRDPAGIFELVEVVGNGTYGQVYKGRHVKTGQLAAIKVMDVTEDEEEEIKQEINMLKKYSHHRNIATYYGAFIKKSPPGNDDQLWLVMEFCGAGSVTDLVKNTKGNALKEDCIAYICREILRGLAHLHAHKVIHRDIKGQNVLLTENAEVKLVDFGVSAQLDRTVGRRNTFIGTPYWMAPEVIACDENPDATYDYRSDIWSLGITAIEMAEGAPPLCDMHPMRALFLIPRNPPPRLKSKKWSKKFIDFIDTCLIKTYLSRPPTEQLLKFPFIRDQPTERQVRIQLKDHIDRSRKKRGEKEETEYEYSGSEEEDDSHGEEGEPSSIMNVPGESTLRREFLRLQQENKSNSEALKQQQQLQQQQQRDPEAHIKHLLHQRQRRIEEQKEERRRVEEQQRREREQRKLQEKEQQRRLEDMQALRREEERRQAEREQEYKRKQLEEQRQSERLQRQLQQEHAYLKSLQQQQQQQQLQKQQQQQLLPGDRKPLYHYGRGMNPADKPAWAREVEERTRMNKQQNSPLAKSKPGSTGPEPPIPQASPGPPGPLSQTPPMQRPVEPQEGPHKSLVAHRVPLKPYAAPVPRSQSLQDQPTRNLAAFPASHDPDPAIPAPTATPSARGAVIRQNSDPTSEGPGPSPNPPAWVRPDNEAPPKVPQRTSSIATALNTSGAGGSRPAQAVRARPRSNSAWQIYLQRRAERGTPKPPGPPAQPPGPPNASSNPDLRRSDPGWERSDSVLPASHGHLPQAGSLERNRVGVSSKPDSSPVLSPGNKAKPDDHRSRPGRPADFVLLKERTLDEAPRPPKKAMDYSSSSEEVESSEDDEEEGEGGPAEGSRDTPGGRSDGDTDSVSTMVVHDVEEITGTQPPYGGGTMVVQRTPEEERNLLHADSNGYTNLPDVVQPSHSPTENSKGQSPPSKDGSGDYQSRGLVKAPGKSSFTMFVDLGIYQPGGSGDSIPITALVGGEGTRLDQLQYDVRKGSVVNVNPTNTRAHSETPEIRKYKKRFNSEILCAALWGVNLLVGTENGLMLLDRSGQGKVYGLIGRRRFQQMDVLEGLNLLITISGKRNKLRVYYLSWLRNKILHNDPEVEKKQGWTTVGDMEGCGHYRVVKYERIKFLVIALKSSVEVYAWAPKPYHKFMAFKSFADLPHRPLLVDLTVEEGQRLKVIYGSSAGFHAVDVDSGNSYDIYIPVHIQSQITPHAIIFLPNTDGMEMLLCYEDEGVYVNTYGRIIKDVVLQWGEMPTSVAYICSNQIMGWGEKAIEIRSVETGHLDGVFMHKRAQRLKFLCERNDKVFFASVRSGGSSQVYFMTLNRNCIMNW

[3] = test system: interleukin-1α (IL1α)-mediated cytokine production by the lung adenocarcinoma cell line A549; test: Cellular assay (A549) against IL1α-mediated cytokine production; assay type: cell-based, human; details: serum starved A549 cells, compound 30 min prior to IL-1α (1 ng/ml) for 24 h, ELISA
Method: Cellular Assay (A549 Human Lung Adenocarcinoma Cells) Assessing Effect of ZH3-138, ZH3-126 and PF670462 Against IL1α-Mediated Cytokine Production
The anti-inflammatory potential of selected compounds was examined by establishing the effects on interleukin-1α (IL1α)-mediated cytokine production by the lung adenocarcinoma cell line A549. Serum starved A549 cells were treated with various concentrations of the relevant CK1δ inhibitor (PF670462, ZH3-126 and ZH3-138) 30 min prior to IL-1α (1 ng/ml) for 24 h. Supernatant was collected and concentration of IL-6, IL-8 and GM-CSF was detected by ELISA. Data are presented as mean±SEM across three replicates in FIG. 7 (A: IL-6; B: IL-8 and C: GM-CSF).

[4] = molecular target: T3, human recombinant Casein kinase 18 (CK1δ) (Homo sapiens, UniProt P48730); test: Kinase inhibition assay (HotSpot, Reaction Biology Corp), CK1δ; assay type: biochemical; details: 10 μM ATP, 10-dose IC50 mode
T3 construct: purchased Reaction Biology Corp
T3 sequence (P48730 whole entry): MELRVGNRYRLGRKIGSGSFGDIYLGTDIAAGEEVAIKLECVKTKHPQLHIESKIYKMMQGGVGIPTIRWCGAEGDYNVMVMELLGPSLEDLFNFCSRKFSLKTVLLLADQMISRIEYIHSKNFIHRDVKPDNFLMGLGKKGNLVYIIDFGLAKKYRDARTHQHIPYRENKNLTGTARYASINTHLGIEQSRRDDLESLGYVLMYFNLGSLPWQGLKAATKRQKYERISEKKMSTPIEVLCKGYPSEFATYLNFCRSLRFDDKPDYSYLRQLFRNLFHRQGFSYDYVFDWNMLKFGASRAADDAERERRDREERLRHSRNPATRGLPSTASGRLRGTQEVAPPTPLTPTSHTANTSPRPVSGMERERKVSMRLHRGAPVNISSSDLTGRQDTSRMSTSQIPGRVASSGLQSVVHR

## CCn1cnc(-c2ccc(F)cc2)c1-c1ccnc(NCCO)n1 [ZH3-126, 2-((4-(1-Ethyl-4-(4-fluorophenyl)-1H-imidazol-5-yl)pyrimidin-2-yl)amino)ethan-1-ol]
ERBB4/HER4
  IC50: 9.52e-06 M
[1]
  IC50: 1.86 µM
[2]; human liver microsomes
  Predicted EH (hepatic extraction ratio): 0.22
[2]; human liver microsomes, 1 μM
  microsomal CLint at 1 μM: 7 µL/min/mg
[2]; human liver microsomes, 1 μM, 0.4 mg/mL protein, 37° C.
  half-life at 1 μM: 4.03 h
[2]; scaled from human liver microsomes, well stirred model
  Predicted CLblood: 5 mL/min/kg
[2]; scaled from human liver microsomes, read-out: Predicted CLint, in vivo
  CLint scaled at 1 μM: 6 mL/min/kg
MINK/MINK1
  IC50: 1.99e-07 M
[3]
  supernatant concentrations of inflammatory biomarkers (IL-6, IL-8, GM-CSF): ability to reduce supernatant concentrations of other inflammatory biomarkers
[4]; read-out: Compound IC50 (M) CK1δ
  IC50: 6.38e-10 M
[4]; casein kinase 1δ, read-out: pIC50 (converted)
  IC50: 6.46e-10 M
